One molecule from patent US20240166702A1, “COMPOSITIONS AND METHODS FOR TREATING BREAST CANCER” (Arizona Board of Regents on Behalf of The University of …, priority 2021, published 2024) can be followed below.

Series [1] relates to WAP-TGFα tumors. The experiment in a line: Anti-NKp46 antibody analysis of WAP-TGFα tumors for NK cells. The format is in vivo, mouse. The settings on record: anti-NKp46 antibodies. Here is the method: (§1) C. WAP-TGFα tumors treated with either SNX1.3 or cPTD4 were analyzed for NK cells using an anti-NKp46 antibody. Inset is 20×.
(§2) In addition to bioinformatics identification of CTLs in these tumors, similar analysis implicated recruitment of NK cells as well (FIG. 9). As a part of the innate immune system, NK cells should only be recruited if a change has occurred to display NK-activating antigens. While there are many such antigens expressed under a variety of immune modulation conditions, some are highly associated with activation of NK cells against cancers, such as ULBP2/3 or MICA/MICB32.

Series [2] deals with MCF10A cells. The format is cell-based.
Series [3] has as its system pAkt and dpERK. The experiment in a line: EGF-dependent Akt and ERK activation in MDA-MB-468 cells. It counts as cell-based, human. The settings on record: MDA-MB-468, EGF stimulated.
In series [4] the test system is EGFR dependent mammary gland tumors of WAP-TGFα mice. The experiment in a line: Tumor regression study in WAP-TGFα transgenic mice. The format is in vivo, mouse. An excerpt:
Mice were bred continuously to induce transgene expression and palpated weekly for tumor formation. […] A. Changes in tumor size from entry into study until end of study are shown for each individual tumor, (*) indicate tumors that entered the study at size greater than 500 mm^3, all other tumors entered the study at ˜100 mm^3. B. a Kaplan-Meier survival curve was generated showing when mice were sacrificed by either reaching tumor burden (2000 mm^3) or the end of the study (p=0.0002). C. Upon sacrifice tumors were harvested and fixed in 10% formalin and embedded in paraffin. Slides were stained with hematoxylin and eosin and imaged at 20×. D. Protein lysates were generated from tumors upon sacrifice and probed for the indicated proteins.
C. […] D. Cells were treated similarly as in C., fractionated and evaluated for protein localization by immunoblot.
Mice are continually bred to activate the pregnancy-dependent WAP promoter, which drives expression of the EGFR ligand Transforming Growth Factor alpha (TGFα) strictly to the mouse mammary glands. This model stochastically forms unifocal mammary adenocarcinomas through a process that begins with mammary hyperplasia, followed by tumor formation over approximately 8 months. […] No difference in weight or behavior or grooming was observed. Therefore 10 μg/g body weight was used for subsequent studies.
When tumors reached >100 mm^3, IV injections began at 3×/week, 10 μg/g body weight and tumors were measured 3×/week with calipers. Animals were injected for 4 weeks or until they reached maximal tumor burden, defined as a single tumor measuring 2000 mm^3. […] The WAP-TGFα is a spontaneous model in which each tumor arises and progresses in a heterogeneous fashion. Each tumor was evaluated separately to determine the overall impact of SNX1.3 treatment (FIG. 3A). […] In this study, mice were sacrificed after 4 weeks of injections or once they reached tumor burden, represented by the Kaplin-Meyer graph (FIG. 3B).

The test system of series [5] is MDA-MB-468 cells with reduced EGFR. The experiment in a line: MTT viability in MDA-MB-468 cells with shRNA knock down of EGFR. It counts as cell-based, human. The settings on record: shRNA to the 3′UTR of EGFR, 5 days IPTG, 3 days peptide, MTT assay. The protocol:
B. MDA-MD-468 cells were transduced with an IPTG inducible shEGFR targeted against the 3′ UTR of EGFR. These cells were incubated with IPTG for the indicated number of days and lysates were generated to confirm knock down of EGFR. C. In tandem with B., cells were plated and incubated +/−IPTG for 2 days prior to drug treatment. […] After 5 days of IPTG and 3 days of peptide treatment viability was measured using an MTT assay.
(§3) No effect on CHO cells that lack EGFR expression was observed.
(Tetrazolium dyes change colour on reduction, which living cells bring about.)

Series [6] has as its system MDA-MB-468 cells. The experiment in a line: Bulk RNAseq of treated MDA-MB-468 cells. It counts as cell-based, human. The settings on record: MDA-MB-468, bulk RNAseq in triplicate. Here is the method: as §1
A-C. […] A. A gene ontology enrichment bubble plot was produced, and the top 30 enriched GO terms are shown. Color indicates −1*log 10(FDR) for significance of overlap (the higher the more significant). X axis=log odds ratio for genes annotated to that GO term. […] C. RT-PCR analysis of IL1RL1.
as §2
A significant impact on the immune response, especially IL-1 dependent pathways was identified (FIG. 12A). IL-1-specific genes were searched and an upregulation in several IL1R genes, including IL1R2, IL1RL1, IL1RL2, IL1RAP and IL1RN (FIG. 12B) were found. […] It is hypothesized that the transient and targeted activation of the IL1/TLR pathway in the tumors may allow for the immune system to become active where previously these tumors were immune suppressive. […]

Series [7] concerns CHO cells. The experiment in a line: Effect on CHO cells that lack EGFR expression. It counts as cell-based.
Text: as §3

Setting [8] is: 10 μg/g IV 3×/week, first to last measurement.

As for `CC[C@H](C)[C@H](NC(=O)[C@@H](NC(=O)[C@H](Cc1c[nH]cn1)NC(=O)[C@H](CC(N)=O)NC(=O)[C@H](CCCCN)NC(=O)[C@H](C)NC(=O)[C@H](CCCNC(=N)N)NC(=O)[C@H](C)NC(=O)[C@H](CCC(N)=O)NC(=O)[C@H](CCCNC(=N)N)NC(=O)[C@H](C)NC(=O)[C@H](C)NC(=O)[C@H](C)NC(=O)[C@H](CCCNC(=N)N)NC(=O)[C@H](C)NC(=O)[C@H](Cc1ccc(O)cc1)NC(C)=O)C(C)C)C(=O)N[C@@H](CCCCN)C(=O)N[C@@H](Cc1ccc(O)cc1)C(=O)N[C@@H](CC(C)C)C(=O)N[C@@H](CCC(=O)O)C(=O)N[C@H](C(=O)N[C@@H](CC(C)C)C(=O)N[C@@H](CC(C)C)C(=O)N[C@@H](Cc1ccc(O)cc1)C(=O)N[C@@H](CO)C(=O)N[C@@H](CCC(N)=O)C(=O)N[C@@H](CCC(N)=O)C(=O)N[C@@H](CCC(N)=O)C(=O)N[C@@H](CC(C)C)C(=O)N[C@@H](C)C(=O)N[C@@H](CCCCN)C(=O)N[C@@H](Cc1ccc(O)cc1)C(=O)N[C@@H](Cc1c[nH]c2ccccc12)C(=O)N[C@@H](CCC(=O)O)C(=O)N[C@@H](C)C(=O)N[C@@H](Cc1ccccc1)C(=O)N[C@@H](CC(C)C)C(N)=O)[C@@H](C)O` [cSNX1.3], the “NK cell infiltration into tumors” value in series [1] is reported as “Significant NK cell infiltration”. The “impact on normal immortalized cells” value in series [2] is on record as “almost no impact”. In series [3] (15′), the “immediate Akt or ERK activation” value was “no impact”. The “pAkt and dpERK activation, late” value in series [3] (after an hour (60′)) is recorded as “suppressed”. The “mice that reached maximal tumor burden (2000 mm^3) before the end of the study” value in series [4] (10 μg/g IV 3×/week, 4 weeks, p=0.0002 between groups) is listed as 1/6. For the same molecule, in series [4] (setting [8]), the tumors that regressed is on record as 7/11 and the “tumors with no change in tumor volume” value was 2/11. The “tumors that grew through the study” value in series [4] (10 μg/g IV 3×/week, the growing cSNX1.3 tumors entered at greater than 500 mm^3) turned out to be 2. The same molecule registered an average tumor regression in series [4] (10 μg/g body weight IV 3×/week, 4 weeks or until tumor burden, n=11 tumors) of 4 mm^3/day. The tumors fully regressed in series [4] (measured with calipers, confirmed during necropsy) came out at 3. Besides, the “impact on animal weight” value in series [4] (weighed throughout the study, 10 μg/g IV 3×/week) was “no impact”. For the same molecule, the “efficacy in cells with reduced EGFR” value in series [5] is “lacked significant efficacy”. Besides, in series [6], the “NK activating antigens ULBP2, ULBP3, MICA and MICB” value was “increased”; the PDL1 expression result is listed as “did not alter”. Moreover, the “effect on CHO cells” value in series [7] was “No effect”.
